Measured values reported in the NIST ThermoML archive (doi:10.1016/j.tca.2012.10.004).
Numbers after ± are expanded uncertainties.

Tests used:
[1] = 101 kPa, Liquid, Pycnometric method
[2] = refractive index (Na D-line) (dimensionless); details: 101.33 kPa, Liquid, Standard Abbe refractometry
[3] = relative permittivity at zero frequency (dimensionless); details: 101 kPa, Liquid, Coaxial cylinder capacitor
[4] = refractive index (Na D-line) (dimensionless); xn = mol fraction of the nth substance listed; details: 101 kPa, Liquid, Standard Abbe refractometry, x2 = 0
[5] = xn = mol fraction of the nth substance listed; details: 101 kPa, Liquid, Pycnometric method, x2 = 0
[6] = relative permittivity at zero frequency (dimensionless); xn = mol fraction of the nth substance listed; details: 101 kPa, Liquid, Coaxial cylinder capacitor, x2 = 0

O=S1(=O)CCCC1 [sulfolane]
Details	mass density, [1] [kg/m3]	refractive index, [2]	relative permittivity at zero frequency, [3]
293.15 K	1270.8 ± 0.6	1.4854 ± 0.00037	44.5 ± 1.8
298.15 K	1266.5 ± 0.6	1.4836 ± 0.00037	44 ± 1.8
303.15 K	1262 ± 0.7	1.4814 ± 0.00037	43.4 ± 1.7
308.15 K	1257.6 ± 0.7	1.4796 ± 0.00037	42.8 ± 1.7
313.15 K	1253.2 ± 0.7	1.478 ± 0.00037	42.2 ± 1.7
318.15 K	1248.7 ± 0.7	1.4762 ± 0.00037	41.6 ± 1.7
323.15 K	1244.2 ± 0.7	1.4744 ± 0.00037	41.1 ± 1.6
328.15 K	1240.3 ± 0.7	1.4726 ± 0.00037	40.4 ± 1.6

O=S1(=O)CCCC1 [sulfolane] + CN(CCO)CCO
Details	mass density, [5] [kg/m3]	refractive index, [4]	relative permittivity at zero frequency, [6]
293.15 K	1270.8 ± 0.6	1.4854 ± 0.00037	44.5 ± 1.8
298.15 K	1266.5 ± 0.6	1.4836 ± 0.00037	44 ± 1.8
303.15 K	1262 ± 0.7	1.4814 ± 0.00037	43.4 ± 1.7
308.15 K	1257.6 ± 0.7	1.4796 ± 0.00037	42.8 ± 1.7
313.15 K	1253.2 ± 0.7	1.478 ± 0.00037	42.2 ± 1.7
318.15 K	1248.7 ± 0.7	1.4762 ± 0.00037	41.6 ± 1.7
323.15 K	1244.2 ± 0.7	1.4744 ± 0.00037	41.1 ± 1.6
328.15 K	1240.3 ± 0.7	1.4726 ± 0.00037	40.4 ± 1.6

CN(CCO)CCO [N-methyldiethanolamine]
Details	mass density, [1] [kg/m3]	refractive index, [2]	relative permittivity at zero frequency, [3]
293.15 K	1041.6 ± 0.5	1.46935 ± 0.00037	22.9 ± 0.9
298.15 K	1037.9 ± 0.5	1.46724 ± 0.00037	22.4 ± 0.9
303.15 K	1034.1 ± 0.5	1.46532 ± 0.00037	21.8 ± 0.9
308.15 K	1030.3 ± 0.5	1.4631 ± 0.00037	21.3 ± 0.9
313.15 K	1026.5 ± 0.5	1.46074 ± 0.00037	20.8 ± 0.8
318.15 K	1022.7 ± 0.5	1.45892 ± 0.00037	20.3 ± 0.8
323.15 K	1018.9 ± 0.5	1.45708 ± 0.00037	19.8 ± 0.8
328.15 K	1015 ± 0.5	1.45513 ± 0.00037	19.3 ± 0.8
